Results reported in PubChem BioAssay AID743339 (Broad Institute, 2014).
Activity calls are given as the source filed them.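 Rule for the calls: active = activation curve crossing 200% at or below the highest valid dose tested for that sample; inconclusive = flat curve with activation between 30 and 70%, or poor fit; inactive = the rest, including signal falling instead of rising.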

Target: Leucyl-cystinyl aminopeptidase (Mus musculus) (UniProt Q8C129)
Test: IRAP activators, dose response, selectivity assay for ERAP1 modulator project, biochemical, Leu-AMC fluorescence, cherry-picked samples (AID 743339)
Settings: purified IRAP, Leu-AMC cleavage fluorescence, 1 h

Chain of Leucyl-cystinyl aminopeptidase (Mus musculus) (Q8C129 whole entry, looked up): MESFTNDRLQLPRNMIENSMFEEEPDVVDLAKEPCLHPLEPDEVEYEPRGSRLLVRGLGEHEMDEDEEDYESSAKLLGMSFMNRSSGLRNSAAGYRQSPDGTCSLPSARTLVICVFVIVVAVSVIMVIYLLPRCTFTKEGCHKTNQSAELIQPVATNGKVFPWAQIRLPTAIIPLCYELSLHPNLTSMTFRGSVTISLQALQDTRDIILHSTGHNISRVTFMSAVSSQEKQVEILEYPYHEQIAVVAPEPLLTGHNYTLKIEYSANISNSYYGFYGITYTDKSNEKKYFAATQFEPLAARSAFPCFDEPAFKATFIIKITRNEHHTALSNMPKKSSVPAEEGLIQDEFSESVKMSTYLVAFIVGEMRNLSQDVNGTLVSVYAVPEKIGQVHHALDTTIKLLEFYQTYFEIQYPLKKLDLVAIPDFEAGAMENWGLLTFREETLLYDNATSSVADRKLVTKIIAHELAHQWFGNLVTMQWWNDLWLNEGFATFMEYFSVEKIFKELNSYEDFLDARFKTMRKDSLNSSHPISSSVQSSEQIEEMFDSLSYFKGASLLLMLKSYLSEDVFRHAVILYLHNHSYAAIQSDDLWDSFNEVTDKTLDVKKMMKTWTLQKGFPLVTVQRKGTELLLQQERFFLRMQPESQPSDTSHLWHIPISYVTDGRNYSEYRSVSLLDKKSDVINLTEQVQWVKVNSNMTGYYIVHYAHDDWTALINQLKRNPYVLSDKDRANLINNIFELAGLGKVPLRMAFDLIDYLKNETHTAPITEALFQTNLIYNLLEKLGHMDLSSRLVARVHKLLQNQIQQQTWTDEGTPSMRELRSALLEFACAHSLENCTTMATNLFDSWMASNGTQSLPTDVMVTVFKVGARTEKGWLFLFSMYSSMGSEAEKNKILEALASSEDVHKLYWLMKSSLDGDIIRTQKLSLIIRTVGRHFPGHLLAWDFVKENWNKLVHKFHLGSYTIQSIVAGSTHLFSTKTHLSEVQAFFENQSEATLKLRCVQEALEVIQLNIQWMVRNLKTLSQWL

## CCCN(C)C[C@@H]1OCCCC[C@@H](C)Oc2ccc(NS(=O)(=O)c3ccc(C)cc3)cc2C(=O)N([C@H](C)CO)C[C@@H]1C
At 10 µM (top of the series)
  activation: -8.1% (inactive)

## C[C@H](CO)N1C[C@H](C)[C@H](CN(C)Cc2ccc(C(=O)O)cc2)Oc2c(NC(=O)Nc3ccccc3)cccc2C1=O
At 11 µM (top of the series)
  activation: 24.2% (inactive)

## CN1[C@@H]2Cn3c(ccc(/C=C/c4ccccc4)c3=O)[C@H]1[C@@H](C(=O)NC1CCCC1)[C@@H]2CO
  AC200: 983 nM

## O=C(C[C@@H]1CC[C@@H]2[C@H](COC[C@H](O)CN2C(=O)Nc2cccc(Cl)c2)O1)N1CCCCC1
At 11 µM (top of the series)
  activation: 7.14% (inactive)

## O=c1cc(CN2CCN(Cc3ccccc3)CC2)c2ccc(O)cc2o1
  AC200: 1470 nM

## COc1ccc(CNCc2c(O)c(Cl)cc3c(C)c(C)c(=O)oc23)c(OC)c1
  AC200: 493 nM

## CCCN(C)C[C@@H]1OCCCC[C@@H](C)Oc2ccc(NS(=O)(=O)c3ccc(C)cc3)cc2C(=O)N([C@@H](C)CO)C[C@@H]1C
At 5 µM (top of the series)
  activation: 0.889% (inactive)

## Cc1cc(=O)oc2c(CN3CCCC3)c(O)c(Cl)cc12
  AC200: 673 nM

## O=c1oc2c(CN3CCN(CCO)CC3)c(O)ccc2cc1-c1ccccn1
  AC200: 275 nM

## C[C@H](CO)N1C[C@H](C)[C@H](CN(C)Cc2ccncc2)Oc2c(NC(=O)Nc3ccc(C(F)(F)F)cc3)cccc2C1=O
At 11 µM (top of the series)
  activation: 10.6% (inactive)

## COCCCn1c(C(=O)N2CCOCC2)cc2c(=O)n3ccccc3nc21
  AC200: > 2600 nM (inactive)

## CCN1[C@@H]2c3ccc(/C=C/c4ccccc4)c(=O)n3C[C@H]1[C@H](CO)[C@H]2C(=O)N1CCOCC1
  AC200: 2310 nM

## COC(=O)[C@H]1[C@H](CO)[C@H]2Cn3c(ccc(/C=C/c4ccccc4)c3=O)[C@@H]1N2C(=O)C1CCC1
  AC200: 842 nM

## O=c1ccc2cc(OC3O[C@H](CO)[C@@H](O)[C@H](O)[C@H]3O)c(O)cc2o1 (some centres not stated)
  AC200: 346 nM

## COc1cccc(S(=O)(=O)N(C)C[C@@H]2Oc3ncccc3C(=O)N([C@H](C)CO)C[C@@H]2C)c1
At 11 µM (top of the series)
  activation: 79.6% (inactive)

## COC(=O)Cc1c(C)c2ccc(O)c(CNCc3ccc(OC)c(OC)c3)c2oc1=O
  AC200: 535 nM

## Cc1ccc(-c2cc(C(=O)N3CCCC3)c3ccccc3n2)s1
At 5.6 µM (top of the series)
  activation: 152% (inactive)

## Cc1ccccc1-c1ccc2c(c1)O[C@@H](CN(C)Cc1ccc(C(=O)O)cc1)[C@@H](C)CN([C@H](C)CO)S2(=O)=O
At 11 µM (top of the series)
  activation: 3.78% (inactive)

## O=C(C[C@H]1CC[C@@H]2[C@H](COC[C@@H](O)CN2C(=O)Nc2cccc(Cl)c2)O1)N1CCCCC1
  AC200: > 11000 nM (inactive)

## CCNC(=O)[C@H]1[C@H](CO)[C@H]2Cn3c(ccc(/C=C/c4ccccc4)c3=O)[C@@H]1N2C(=O)C1CCCC1
  AC200: 675 nM

## C[C@@H]1CN([C@H](C)CO)C(=O)c2cc(NC(=O)Nc3ccc(F)cc3)ccc2O[C@H]1CN(C)Cc1ccc(C(=O)O)cc1
At 11 µM (top of the series)
  activation: 1.25% (inactive)

## CC(=O)N1[C@@H]2c3ccc(/C=C/c4ccccc4)c(=O)n3C[C@H]1[C@H](CO)[C@H]2C(=O)N(C)C
  AC200: 906 nM

## CO[C@@H]1CN(C)C(=O)c2ccc(NC(=O)Nc3cccc(Cl)c3)cc2OC[C@@H](C)NC[C@H]1C
At 11 µM (top of the series)
  activation: 15.1% (inactive)

## CCCN(C)C[C@@H]1OCCCC[C@@H](C)Oc2ccc(NS(=O)(=O)c3ccccc3)cc2C(=O)N([C@H](C)CO)C[C@@H]1C
At 11 µM (top of the series)
  activation: -6.67% (inactive)

## C[C@@H]1CCCCO[C@@H](CN(C)C(=O)CCC(F)(F)F)[C@@H](C)CN([C@@H](C)CO)C(=O)c2cc(NS(=O)(=O)c3ccccc3)ccc2O1
At 2.6 µM (top of the series)
  activation: 11.6% (inactive)

## Cc1cc(=O)oc2cc(NS(=O)(=O)c3ccc(F)cc3)ccc12
  AC200: 998 nM

## NC(=NCCc1c[nH]c2ccccc12)NS(=O)(=O)c1cc(F)ccc1F
At 11 µM (top of the series)
  activation: 20.9% (inactive)

## CCCCc1cc(=O)oc2cc(O)ccc12
  AC200: 1670 nM

## C[C@@H]1CCCCO[C@@H](CN(C)C)[C@H](C)CN([C@@H](C)CO)C(=O)c2cc(NC(=O)Nc3ccc(C(F)(F)F)cc3)ccc2O1
At 10 µM (top of the series)
  activation: -1.06% (inactive)

## C[C@H](CO)N1C[C@H](C)[C@H](CN(C)CC2CCCCC2)Oc2c(NC(=O)Nc3ccc4c(c3)OCO4)cccc2C1=O
At 11 µM (top of the series)
  activation: -3.26% (inactive)

## COc1ccc(C(=O)O)cc1S(=O)(=O)Nc1cc(C(F)(F)F)ccc1N1CCCCC1
At 11 µM (top of the series)
  activation: 18.7% (inactive)

## Cc1noc(C)c1S(=O)(=O)Nc1ccc2c(c1)C(=O)N([C@H](C)CO)C[C@@H](C)[C@@H](CN(C)CC1CCCCC1)OCCCC[C@@H](C)O2
At 11 µM (top of the series)
  activation: 2.83% (inactive)

## COC(=O)[C@@H]1[C@@H](CO)[C@@H]2Cn3c(ccc(/C=C/c4ccccc4)c3=O)[C@H]1N2C(=O)C1CCC1
  AC200: 1080 nM

## CCCN(C)C[C@@H]1OCCCC[C@H](C)Oc2ccc(NC(=O)Nc3ccc(F)cc3)cc2C(=O)N([C@H](C)CO)C[C@@H]1C
At 11 µM (top of the series)
  activation: -36.2% (inactive)

## CCc1cc(=O)oc2c(CNCc3c(F)cccc3Cl)c(O)ccc12
  AC200: 832 nM

## C[C@H]1CN([C@@H](C)CO)C(=O)c2cccc(NC(=O)Nc3ccc4c(c3)OCO4)c2O[C@@H]1CN(C)CC1CC1
At 11 µM (top of the series)
  activation: -1.26% (inactive)

## O=C(NCc1ccccn1)[C@@H]1[C@@H](CO)[C@@H]2Cn3c(ccc(/C=C/c4ccccc4)c3=O)[C@H]1N2CC1CC1
  AC200: 1030 nM

## N#Cc1c(N)n(CCNC(=O)c2ccccc2)c2nc3ccccc3nc12
  AC200: > 2600 nM (inactive)

## C[C@@H]1CCCCO[C@@H](CN(C)C)[C@@H](C)CN([C@@H](C)CO)C(=O)c2cc(NS(=O)(=O)c3ccc(Cl)cc3)ccc2O1
At 11 µM (top of the series)
  activation: -6.93% (inactive)

## C[C@H]1CN([C@@H](C)CO)C(=O)c2cccc(NC(=O)Nc3ccc(F)cc3)c2O[C@@H]1CN(C)C(=O)Nc1ccc2c(c1)OCO2
At 11 µM (top of the series)
  activation: 21.6% (inactive)

## O=C(O)c1cccc(NC(=O)c2ccccc2NC(=O)c2cccc([N+](=O)[O-])c2)c1
At 11 µM (top of the series)
  activation: 8.03% (inactive)

## O=C(NCC1CC1)[C@H]1[C@H](CO)[C@H]2Cn3c(ccc(/C=C/c4ccccc4)c3=O)[C@@H]1N2C(=O)C1CC1
  AC200: 927 nM

## CCN(CC)c1ccc2c(C)c(Cl)c(=O)oc2c1
  AC200: 964 nM

## C[C@@H]1CCCCO[C@@H](CN(C)Cc2ccccc2)[C@@H](C)CN([C@H](C)CO)C(=O)c2cc(NS(=O)(=O)c3cccs3)ccc2O1
At 5.6 µM (top of the series)
  activation: 16.2% (inactive)

## COc1ccc(NC(=O)Nc2ccc3c(c2)C(=O)N([C@@H](C)CO)C[C@@H](C)[C@H](CN(C)Cc2ccc(C(=O)O)cc2)OCCCC[C@H](C)O3)cc1
At 11 µM (top of the series)
  activation: 58.5% (inactive)

## COCC(=O)N1[C@@H]2c3ccc(/C=C/c4ccccc4)c(=O)n3C[C@H]1[C@H](CO)[C@H]2C(=O)N1CCOCC1
  AC200: 684 nM

## C[C@@H]1CCCCO[C@@H](CN(C)C(=O)CCC(F)(F)F)[C@@H](C)CN([C@@H](C)CO)C(=O)c2cc(NS(=O)(=O)c3ccc(Cl)cc3)ccc2O1
At 5 µM (top of the series)
  activation: 22.3% (inactive)

## COc1ccc(CN(C)C[C@@H]2OCCCC[C@H](C)Oc3ccc(NS(=O)(=O)c4cccs4)cc3C(=O)N([C@H](C)CO)C[C@@H]2C)cc1
At 11 µM (top of the series)
  activation: -13.3% (inactive)

## Cc1c(C)c2ccc(O)c(CN3CCN(C)CC3)c2oc1=O
  AC200: 1510 nM

## C[C@@H]1CCCCO[C@@H](CN(C)CC2CC2)[C@@H](C)CN([C@H](C)CO)C(=O)c2cc(NS(=O)(=O)c3cccs3)ccc2O1
At 11 µM (top of the series)
  activation: 11.9% (inactive)

## CCCN(C)C[C@@H]1OCCCC[C@@H](C)Oc2ccc(NS(=O)(=O)c3c(C)noc3C)cc2C(=O)N([C@H](C)CO)C[C@@H]1C
At 10 µM (top of the series)
  activation: -22.5% (inactive)

## C[C@@H]1CCCCO[C@@H](CN(C)Cc2ccc(C(=O)O)cc2)[C@H](C)CN([C@@H](C)CO)C(=O)c2cc(NS(=O)(=O)c3ccc(Cl)cc3)ccc2O1
At 11 µM (top of the series)
  activation: -3.97% (inactive)
